Measurements as given in patent US5830885A, “Antiproliferative vitamin D3 hybrids” (The Johns Hopkins University, priority 1996, dated 1998).
Where “and” joins values, the source holds several entries; their conditions need not be identical. Equal entries are not always repeated. Entries after “also recorded” stand apart in the source; their conditions may differ. One block for each compound: values may come before it.

Key:
HL-60 cells = assay: Growth inhibition of HL-60 cells; type: cell-based; details: FIG. 8; YA and YB 10^-7 M, others 10^-6 M
Excerpt: YA and YB were at concentrations of 10^-7 M; the other compounds were at concentrations of 10^-6 M.

calf thymus VDR = target: T1, calf thymus VDR (Bos taurus, UniProt Q28037); assay: VDR binding assay, displacement of [^3 H]-1,25(OH)2 D3 from VDR; details: for Amount Bound (amount that results in 50% displacement of [^3 H]-1,25(OH)2 D3 from VDR): Table 6, calf thymus VDR; for VDR binding affinity relative to that of calcitriol / binding to the 1,25(OH)2-vitamin D3 receptor (VDR), % of calcitriol's binding: relative to calcitriol; for times less strongly bound to VDR than 1,25(OH)2 D3: relative to 1,25(OH)2 D3
T1 construct: from the calf thymus VDR; from tissue; host or cells: calf thymus
T1 sequence (Q28037 1-426): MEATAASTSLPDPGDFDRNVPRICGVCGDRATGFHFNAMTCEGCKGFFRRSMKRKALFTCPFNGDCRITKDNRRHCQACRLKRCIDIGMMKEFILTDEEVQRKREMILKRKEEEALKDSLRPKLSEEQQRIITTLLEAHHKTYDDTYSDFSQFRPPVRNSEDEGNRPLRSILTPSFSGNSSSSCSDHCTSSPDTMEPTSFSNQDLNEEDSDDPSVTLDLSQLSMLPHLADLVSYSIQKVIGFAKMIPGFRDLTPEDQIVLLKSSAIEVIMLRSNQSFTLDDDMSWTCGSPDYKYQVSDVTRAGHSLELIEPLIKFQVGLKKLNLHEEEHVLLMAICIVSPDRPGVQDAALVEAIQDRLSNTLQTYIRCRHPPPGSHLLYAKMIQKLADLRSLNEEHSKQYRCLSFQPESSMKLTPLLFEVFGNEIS
Procedure: The VDR binding assay was performed according to the procedure of Reinhardt, T. A., Horst, R. L., Orf, J. W., Hollis, B. W., J. Clin. Endocrin. Metab., 58: 91-98 (1984), the entire contents of which are hereby incorporated herein by reference.

[1] = tested on: murine keratinocyte cells (cell line PE); assay: Growth inhibition of PE keratinocytes (MTT assay); type: cell-based; details: for inhibition of proliferation of PE cells: FIG. 7
Procedure: (§1) The compounds were tested for growth inhibition of murine keratinocyte cells (cell line PE) and for the inhibition of TPA-induced ornithine decarboxylase (ODC) activity.
The PE cell line culture medium used in the tests consisted of Eagle's minimal essential medium without calcium chloride supplemented with 8% chelexed fetal calf serum and 1% antibiotic-antimycotic and the addition of CaCl2 to 0.05 mM Ca^++.
PE cells were seeded at a density of 5,000 cells/well in 50 μl medium into 96-well microtiter plates. […] The plates were fed once at 48 hours, with the re addition of the vitamin D3 analogues at this time. At 24 hour intervals following the initial treatment of the cells with compounds, 0.1 mg ([…] of a 2 mg/ml solution) of MTT was added to the plates. After 4 hours, the MTT was removed and DMSO added to dissolve the blue formazan dye. Using a microtiter plate reader, the A505 was then determined and cell number calculated from blank-subtracted absorbance values.

[2] = tested on: Human lymphoma cells U 937; details: relative to calcitriol = 1; cited from earlier work
Lewis rats = details: relative to calcitriol = 1; cited from earlier work
[3] = tested on: Human lymphoma cells U 937; details: relative to calcitriol = 1; cited from earlier work; remark: listed apart in the source
[4] = Solubility in organic solvents; type: physicochemical; details: methylene chloride, chloroform, methanol; for YA/YB also EtOAc, acetone
cell proliferation = assay: Anti-proliferative activity (summary statements); type: cell-based; details: compared with calcitriol or in general words
[5] = Crystallization behaviour; type: physicochemical
calcium channels = assay: Calcium channel opening assay; type: cell-based; details: Bay K 1 μM, in the experiments of each compound's line
U 937 cancer cells [6] = assay: Viability of U 937 cancer cells (Table 5); type: cell-based; details: Homo sapiens
[7] = tested on: ornithine decarboxylase (ODC); details: literature; cited from earlier work
U 937 cancer cells [8] = assay: Induction of cell differentiation in U 937 cancer cells (Table 5); type: cell-based, human; details: at a concentration of 10^-8 M
[9] = tested on: ornithine decarboxylase (ODC); assay: Inhibition of TPA-induced ornithine decarboxylase (ODC) activity in PE cells; type: cell-based, murine; details: 1 μM, 15 minutes pretreatment, p<0.001
Procedure: as §1
The cell line PE was derived from a papilloma induced in female SENCAR mice by a standard skin initiation/promotion protocol (Carcinogenesis, 7:949-958 (1986), the entire contents of which are hereby incorporated by reference) and was chosen for its particular sensitivity to the induction of ornithine decarboxylase (ODC) activity by the extensively characterized tumor promoter TPA. The PE cell line culture medium used in the tests consisted of Eagle's minimal essential medium without calcium chloride supplemented with 8% chelexed fetal calf serum and 1% antibiotic-antimycotic and the addition of CaCl2 to 0.05 mM Ca^++.
100 cm^2 dishes of PE cells were treated with vitamin D3 or analogues dissolved in DMSO by direct addition into the culture medium. Fifteen minutes later, the plates were treated with 100 ng/ml TPA dissolved in ethanol. […]
Cytosolic ODC activity was determined in triplicate by measuring the release of ^14 CO2 from L-[^14 C]ornithine using an Eppendorf microvessel assay as previously described (Cancer Res., 43:2555-2559 (1983), the entire contents of which are hereby incorporated by reference).

keratinocyte = assay: Dose-response effects on keratinocyte proliferation (FIGS. 3, 4, 9, 10); type: cell-based; details: cell numbers at 0 and 96 hours
Procedure: N0 represents the number of cells at zero hours and N1 represents the number of cells at 96 hours.

[10] = in vivo; cited from earlier work

Amount Bound (amount that results in 50% displacement of [^3 H]-1,25(OH)2 D3 from VDR) (calf thymus VDR): 1450 ng
VDR binding affinity relative to that of calcitriol (calf thymus VDR): less than 10^-3
Compound: C=C1/C(=C\C=C2/CCC[C@]3(C)[C@@H]([C@@H](C)CSc4cccc(C(C)(C)O)c4)CC[C@@H]23)C[C@@H](O)C[C@@H]1CO [JK 277-1]
inhibition of growth of HL-60 cells (HL-60 cells): more modest effect
inhibition of proliferation of PE cells [1]: inhibited proliferation of PE cells

Compound: C=C1/C(=C\C=C2/CCC[C@]3(C)[C@@H]([C@H](C)/C=C/[C@@H](O)C4CC4)CC[C@@H]23)C[C@@H](O)C[C@@H]1O [Mc-903 (Calcipotriol)]
Relative Potency, Induction of Differentiation [2]: 1
Relative Potency, Calcemic Effects (Lewis rats): < 0.01
Relative Potency, Inhibition of Proliferation [3]: 1.3

binding to the 1,25(OH)2-vitamin D3 receptor (VDR), % of calcitriol's binding (calf thymus VDR): ≤ 2%
ease of crystallization [5]: easily crystallized
Compound: C=C1/C(=C\C=C2/CCC[C@]3(C)[C@@H]([C@H](C)CCCC(C)(C)O)CC[C@@H]23)C[C@@H](O)C[C@@H]1CO [(-)-2, 1α-hydroxymethyl-25-hydroxyvitamin D3]
solubility in organic solvents [4]: unexpectedly poor solubility; also recorded: only sparingly soluble
anti-proliferative activity (cell proliferation): did not change the anti- proliferative or cell growth inhibitory activity

binding to the 1,25(OH)2-vitamin D3 receptor (VDR), % of calcitriol's binding (calf thymus VDR): ≤ 2%
ease of crystallization [5]: very difficult to crystallize
Compound: C=C1/C(=C\C=C2/CCC[C@]3(C)[C@@H]([C@H](C)CCCC(C)(C)O)CC[C@@H]23)C[C@H](O)C[C@H]1CO [(+)-3, 1β-hydroxymethyl-3β-norhydroxy-3α, 25-dihydroxyvitamin D3]
anti-proliferative activity (cell proliferation): did not change the anti- proliferative or cell growth inhibitory activity

Compound: COC(=O)C1=C(C)NC(C)=C([N+](=O)[O-])C1c1ccccc1C(F)(F)F (stereo not shown) [Bay K, reference compound]
Average peak shift compared to control (calcium channels): 28.3 ± 5.6 mV and 29.0 ± 1.4 mV and 26.3 ± 4.5 mV and 27.9 ± 5.3 mV

Amount Bound (amount that results in 50% displacement of [^3 H]-1,25(OH)2 D3 from VDR) (calf thymus VDR): 40 ng
times less strongly bound to VDR than 1,25(OH)2 D3 (calf thymus VDR): ~3750 times
VDR binding affinity relative to that of calcitriol (calf thymus VDR): less than 10^-3
Compound: C=C1/C(=C\C=C2/CCC[C@]3(C)[C@@H]([C@@H](C)CSc4cccc(C(C)(C)O)c4)CC[C@@H]23)C[C@H](O)C[C@H]1CO [JK 277-2]
inhibition of growth of HL-60 cells (HL-60 cells): even more effective than YB in inhibiting growth
inhibition of proliferation of PE cells [1]: inhibited proliferation of PE cells; also recorded: at much lower concentrations than their corresponding 1α,3β-stereoisomers

Compound: C=C1/C(=C\C=C2/CCC[C@]3(C)[C@@H]([C@H](C)CCCC(C)(C)O)CC[C@@H]23)C[C@@H](O)C[C@@H]1O [Calcitriol, 1α,25-dihydroxyvitamin D3, reference compound]
viability at 0.1 µM (U 937 cancer cells [6]): 99%
inhibition of TPA effects on ODC induction as well as TPA-stimulated tumor promotion [7]: shown to inhibit TPA effects on ODC induction
inducing cell differentiation (in words) (U 937 cancer cells [8]): effective in inducing cell differentiation
growth inhibition of PE cells, comparison of potency ([1]; calcitriol vs 1-hydroxymethyl derivatives): equipotent at inhibiting growth of PE cells
inhibition of TPA-induced ODC activity [9]: significantly inhibited the effects of TPA
inhibition of TPA-induced ODC activity ([9]; listed as calcitriol): statistically significant reduction in TPA-induced ODC activity

Compound: C=C1/C(=C\C=C2/CCC[C@]3(C)C([C@H](C)CC#CC(C)(C)O)=CC[C@@H]23)C[C@@H](O)C[C@@H]1CO [JK III 7-1]
effect on keratinocyte proliferation (keratinocyte): appears ineffective in reducing cell proliferation

VDR binding affinity relative to that of calcitriol (calf thymus VDR): ~ 10^-3
Compound: C=C1/C(=C\C=C2/CCC[C@]3(C)[C@@H]([C@@H](C)OCCCC(O)(CC)CC)CC[C@@H]23)C[C@H](O)C[C@H]1CCF [RHH 045 B, 1α- and 1β-(2-Fluoroethyl)-25-hydroxyvitamin D3 Homologs]
anti-proliferative activity (cell proliferation): comparable to that of calcitriol
effect on keratinocyte proliferation (keratinocyte): far more effective in inhibiting cell proliferation

Compound: C=C1/C(=C\C=C2/CCC[C@]3(C)[C@@H]([C@@H](C)CSc4cccc(C(C)(C)O)c4)CC[C@@H]23)C[C@@H](O)C[C@@H]1O [GS 1500]
serum half-life [10]: very short serum half-life

VDR binding affinity relative to that of calcitriol (calf thymus VDR): ~ 10^-3
Compound: C=C1/C(=C\C=C2/CCC[C@]3(C)[C@@H]([C@H](C)/C=C/C=C/C(O)(CC)CC)CC[C@@H]23)C[C@H](O)C[C@H]1CO [MCW 068-Y-EE]
anti-proliferative activity (cell proliferation): comparable to that of calcitriol
effect on keratinocyte proliferation (keratinocyte): much greater anti proliferative activity than MCW 068-Y-ED

Amount Bound (amount that results in 50% displacement of [^3 H]-1,25(OH)2 D3 from VDR) (calf thymus VDR): 1650 ng
VDR binding affinity relative to that of calcitriol (calf thymus VDR): less than 10^-3
Compound: C=C1/C(=C\C=C2/CCC[C@]3(C)[C@@H]([C@@H](C)COCCCC(C)(C)O)CC[C@@H]23)C[C@@H](O)C[C@@H]1CO [JK 276-1]
inhibition of growth of HL-60 cells (HL-60 cells): more modest effect
inhibition of proliferation of PE cells [1]: inhibited proliferation of PE cells

Compound: C=C1/C(=C\C=C2/CCC[C@]3(C)[C@@H]([C@H](C)/C=C/C=C/C(O)(CC)CC)CC[C@@H]23)C[C@@H](O)C[C@@H]1O [EB1089]
Relative Potency, Induction of Differentiation [2]: 67
Relative Potency, Calcemic Effects (Lewis rats): 0.4
Relative Potency, Inhibition of Proliferation [3]: 68

Amount Bound (amount that results in 50% displacement of [^3 H]-1,25(OH)2 D3 from VDR) (calf thymus VDR): 22.5 ng
times less strongly bound to VDR than 1,25(OH)2 D3 (calf thymus VDR): about 1500 times
VDR binding affinity relative to that of calcitriol (calf thymus VDR): less than 10^-3
Compound: C=C1/C(=C\C=C2/CCC[C@]3(C)[C@@H]([C@@H](C)COCCCC(C)(C)O)CC[C@@H]23)C[C@H](O)C[C@H]1CO [JK 276-2]
inhibition of growth of HL-60 cells (HL-60 cells): even more effective than YB in inhibiting growth
inhibition of proliferation of PE cells [1]: inhibited proliferation of PE cells; also recorded: at much lower concentrations than their corresponding 1α,3β-stereoisomers

VDR binding affinity relative to that of calcitriol (calf thymus VDR): ~ 10^-3
Compound: C=C1/C(=C\C=C2/CCC[C@]3(C)C([C@H](C)CC#CC(C)(C)O)=CC[C@@H]23)C[C@H](O)C[C@H]1CO [JK III 7-2]
anti-proliferative activity (cell proliferation): comparable to that of calcitriol
effect on keratinocyte proliferation (keratinocyte): equal to or greater than calcitriol
